Experimental data: ChEMBL document CHEMBL1201862, “PubChem BioAssay data set” (2004)
The source made the active and inactive calls.

Tests used:
Cytochrome P450 2C19 = Cytochrome P450 2C19 (Homo sapiens, UniProt P33261); experiment: Cytochrome panel assay with activity outcomes. Panel member name: p450-cyp2c19 Compounds with AC50 equal or less than 10 uM are considered active; assay type: functional; conditions: read-out: AC50
Cytochrome P450 3A4 = Cytochrome P450 3A4 (Homo sapiens, UniProt P08684);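 note: CYP3A4 tested as one member of a cytochrome P450 panel screen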
Cytochrome P450 2D6 = Cytochrome P450 2D6 (Homo sapiens, UniProt P10635);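 note: CYP2D6 member of a cytochrome P450 panel assay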
[1] = biological target: T1, Microphthalmia-associated transcription factor (Homo sapiens, UniProt O75030); experiment: reducers of TRPM1 reporter luminescence, concentration series – cell-based, SK-MEL-5, cherry-picked, set 3, MITF inhibitor project, dose response (AID 493073); assay type: functional;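 note: SK-MEL-5 melanoma cells with luciferase driven by the MITF target TRPM1 promoter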
T1 sequence (O75030 whole entry): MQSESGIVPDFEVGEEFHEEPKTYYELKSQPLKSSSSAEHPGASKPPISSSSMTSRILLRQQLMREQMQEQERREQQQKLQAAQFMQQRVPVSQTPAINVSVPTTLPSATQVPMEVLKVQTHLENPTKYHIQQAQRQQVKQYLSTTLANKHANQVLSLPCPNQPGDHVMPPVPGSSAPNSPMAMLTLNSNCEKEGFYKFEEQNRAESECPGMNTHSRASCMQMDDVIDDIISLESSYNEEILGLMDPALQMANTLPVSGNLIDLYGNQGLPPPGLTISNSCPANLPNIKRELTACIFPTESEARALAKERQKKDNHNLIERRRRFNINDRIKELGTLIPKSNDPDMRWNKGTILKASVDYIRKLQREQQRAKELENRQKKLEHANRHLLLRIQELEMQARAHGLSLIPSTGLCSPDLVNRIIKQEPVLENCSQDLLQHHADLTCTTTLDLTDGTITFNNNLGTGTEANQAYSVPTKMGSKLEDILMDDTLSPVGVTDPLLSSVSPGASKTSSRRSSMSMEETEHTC

A-375 = experiment: proliferation inhibition in MITF-low A375 cells – cell-based, cherry-pick samples, set 2, counter-screen for MITF modulator project, dose response (AID 540335); assay type: functional; conditions: Homo sapiens
[2] = Luminescence Cell-Based Dose Retest to Confirm Inhibitors of Cancer Stem Cells. [Related pubchem assays (depositor defined):AID2717, AID2721]; assay type: functional; conditions: Homo sapiens
INS1 = experiment: INS-1E survival protection against cytokine death – cell-based, luminescence, retest, dose response (AID 449756); assay type: functional; conditions: Rattus norvegicus;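 note: cell death triggered by IL-1 beta plus TNF-alpha plus IFN-gamma mixture; protective hits raise ATP signal compared with cytokine alone wells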
Tumor necrosis factor = Tumor necrosis factor (Homo sapiens, UniProt P01375); experiment: analog potency on TNFa NF-kB signaling – cell-based, revised, SAR follow-up (AID 2337); assay type: functional
[3] = biological target: T2, Nucleotide-binding oligomerization domain-containing protein 1 (Homo sapiens, UniProt Q9Y239); experiment: blockers of NOD1 pathway activity – revised, SAR follow-up (AID 2333); assay type: functional
T2 sequence (Q9Y239 whole entry): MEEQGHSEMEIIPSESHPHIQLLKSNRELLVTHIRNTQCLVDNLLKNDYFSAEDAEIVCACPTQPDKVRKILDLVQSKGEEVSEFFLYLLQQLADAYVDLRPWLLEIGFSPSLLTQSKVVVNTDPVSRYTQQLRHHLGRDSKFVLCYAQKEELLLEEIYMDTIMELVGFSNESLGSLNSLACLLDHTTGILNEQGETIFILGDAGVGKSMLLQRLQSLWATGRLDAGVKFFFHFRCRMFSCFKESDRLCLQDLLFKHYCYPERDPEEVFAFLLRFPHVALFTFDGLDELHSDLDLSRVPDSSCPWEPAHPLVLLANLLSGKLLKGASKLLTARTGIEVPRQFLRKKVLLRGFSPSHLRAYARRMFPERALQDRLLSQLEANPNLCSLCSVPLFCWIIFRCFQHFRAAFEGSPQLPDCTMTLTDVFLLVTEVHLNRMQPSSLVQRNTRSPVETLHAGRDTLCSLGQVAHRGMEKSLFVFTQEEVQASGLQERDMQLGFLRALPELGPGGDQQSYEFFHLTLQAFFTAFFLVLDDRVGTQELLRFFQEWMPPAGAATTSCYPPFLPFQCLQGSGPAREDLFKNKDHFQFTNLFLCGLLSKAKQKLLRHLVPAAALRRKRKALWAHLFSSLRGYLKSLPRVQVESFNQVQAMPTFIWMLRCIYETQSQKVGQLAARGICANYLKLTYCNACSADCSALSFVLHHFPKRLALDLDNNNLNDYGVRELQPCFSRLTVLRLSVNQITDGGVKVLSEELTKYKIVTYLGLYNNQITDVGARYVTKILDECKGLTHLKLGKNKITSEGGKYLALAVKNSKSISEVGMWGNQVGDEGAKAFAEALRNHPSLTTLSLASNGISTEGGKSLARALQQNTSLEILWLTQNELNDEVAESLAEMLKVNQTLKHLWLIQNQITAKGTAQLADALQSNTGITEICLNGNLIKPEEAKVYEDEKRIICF

[4] = HEK-293T viability loss after treatment – luminescence, T-cell screen hits, cytotoxicity control for TCR NF-kB inhibitor project, dose response (AID 489026); assay type: functional, cell-based;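 note: cells exposed to compound about 14 hours before the viability readout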
HEK293 = experiment: cells; conditions: Homo sapiens;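 note: cells exposed to compound for 14 hours overnight before viability readout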
[5] = decrease of insulin promoter-GFP reporter – imaging, high-content screening, mouse beta cells (AID 1628); assay type: functional; conditions: MIN6
[6] = MIN6 cell viability loss – mouse insulinoma, cytotoxicity control, dose response (AID 2122); assay type: functional;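 note: confirmatory high-throughput counterscreen run to flag cytotoxic compounds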
Cytochrome P450 2C9 = Cytochrome P450 2C9 (Homo sapiens, UniProt P11712)
SUMO E1/E2 = SUMO E1/E2 (Homo sapiens, UniProt P63279+Q9UBE0+Q9UBT2); experiment: SAR analysis of SUMOylation using HTRF in an in-Vitro dose response assay. [Related pubchem assays (depositor defined):AID2006, AID2011, AID2018, AID2069, AID2658]; assay type: functional
Exodeoxyribonuclease V = biological target: T3, Exodeoxyribonuclease V (Escherichia coli (strain K12), UniProt P04993+P07648+P08394); experiment: RecBCD inhibition via phage-restricted bacterial growth – absorbance, V66 E. coli, mutant T4 phage, counter-screen for AddAB inhibitor project, dose response (AID 492957); assay type: functional, cell-based, Escherichia coli str. K-12 substr. MG1655
T3 sequence (P04993 whole entry): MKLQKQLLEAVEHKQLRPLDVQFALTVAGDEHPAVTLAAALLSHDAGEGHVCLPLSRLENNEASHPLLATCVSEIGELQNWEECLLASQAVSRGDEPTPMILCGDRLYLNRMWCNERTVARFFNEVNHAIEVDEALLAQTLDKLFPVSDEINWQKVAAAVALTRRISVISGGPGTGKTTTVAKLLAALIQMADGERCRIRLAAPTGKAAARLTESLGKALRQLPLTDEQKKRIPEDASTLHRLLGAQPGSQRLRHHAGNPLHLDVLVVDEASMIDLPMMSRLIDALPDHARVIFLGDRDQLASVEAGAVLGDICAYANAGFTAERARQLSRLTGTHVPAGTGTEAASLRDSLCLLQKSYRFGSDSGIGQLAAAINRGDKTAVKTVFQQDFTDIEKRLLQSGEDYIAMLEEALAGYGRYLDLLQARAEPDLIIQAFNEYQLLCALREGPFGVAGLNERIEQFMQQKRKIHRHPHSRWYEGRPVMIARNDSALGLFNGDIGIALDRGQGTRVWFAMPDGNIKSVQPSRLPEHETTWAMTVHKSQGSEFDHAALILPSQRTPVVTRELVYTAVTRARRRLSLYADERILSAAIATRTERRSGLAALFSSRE
T3 sequence (P07648 whole entry): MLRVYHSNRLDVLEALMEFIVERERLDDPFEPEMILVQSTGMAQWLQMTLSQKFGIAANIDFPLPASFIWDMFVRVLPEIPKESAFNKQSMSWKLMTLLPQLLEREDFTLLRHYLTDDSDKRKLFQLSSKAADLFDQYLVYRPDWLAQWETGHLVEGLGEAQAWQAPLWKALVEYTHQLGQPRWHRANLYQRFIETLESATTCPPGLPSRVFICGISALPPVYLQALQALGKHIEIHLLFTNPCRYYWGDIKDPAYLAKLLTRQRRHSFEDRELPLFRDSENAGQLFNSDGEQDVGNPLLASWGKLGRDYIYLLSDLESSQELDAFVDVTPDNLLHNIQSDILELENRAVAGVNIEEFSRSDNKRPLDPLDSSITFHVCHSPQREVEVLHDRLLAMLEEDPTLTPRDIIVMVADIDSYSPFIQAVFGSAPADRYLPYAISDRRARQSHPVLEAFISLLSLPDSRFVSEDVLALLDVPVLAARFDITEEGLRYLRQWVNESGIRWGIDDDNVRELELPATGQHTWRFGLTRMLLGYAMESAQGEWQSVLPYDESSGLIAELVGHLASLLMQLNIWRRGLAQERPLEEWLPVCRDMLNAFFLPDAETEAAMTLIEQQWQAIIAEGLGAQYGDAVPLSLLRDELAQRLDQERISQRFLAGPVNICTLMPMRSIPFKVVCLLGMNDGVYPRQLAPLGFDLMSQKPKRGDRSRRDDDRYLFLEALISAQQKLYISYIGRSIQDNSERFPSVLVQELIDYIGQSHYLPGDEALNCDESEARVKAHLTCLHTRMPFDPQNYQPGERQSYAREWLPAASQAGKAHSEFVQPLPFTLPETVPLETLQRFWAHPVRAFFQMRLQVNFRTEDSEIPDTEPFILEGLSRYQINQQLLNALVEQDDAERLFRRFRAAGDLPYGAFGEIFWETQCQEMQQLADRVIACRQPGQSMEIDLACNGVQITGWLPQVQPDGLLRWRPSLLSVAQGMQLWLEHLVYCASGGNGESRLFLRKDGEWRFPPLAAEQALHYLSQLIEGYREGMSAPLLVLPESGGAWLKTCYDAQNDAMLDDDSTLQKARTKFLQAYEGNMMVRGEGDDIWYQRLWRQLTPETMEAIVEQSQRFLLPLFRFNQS
T3 sequence (P08394 whole entry): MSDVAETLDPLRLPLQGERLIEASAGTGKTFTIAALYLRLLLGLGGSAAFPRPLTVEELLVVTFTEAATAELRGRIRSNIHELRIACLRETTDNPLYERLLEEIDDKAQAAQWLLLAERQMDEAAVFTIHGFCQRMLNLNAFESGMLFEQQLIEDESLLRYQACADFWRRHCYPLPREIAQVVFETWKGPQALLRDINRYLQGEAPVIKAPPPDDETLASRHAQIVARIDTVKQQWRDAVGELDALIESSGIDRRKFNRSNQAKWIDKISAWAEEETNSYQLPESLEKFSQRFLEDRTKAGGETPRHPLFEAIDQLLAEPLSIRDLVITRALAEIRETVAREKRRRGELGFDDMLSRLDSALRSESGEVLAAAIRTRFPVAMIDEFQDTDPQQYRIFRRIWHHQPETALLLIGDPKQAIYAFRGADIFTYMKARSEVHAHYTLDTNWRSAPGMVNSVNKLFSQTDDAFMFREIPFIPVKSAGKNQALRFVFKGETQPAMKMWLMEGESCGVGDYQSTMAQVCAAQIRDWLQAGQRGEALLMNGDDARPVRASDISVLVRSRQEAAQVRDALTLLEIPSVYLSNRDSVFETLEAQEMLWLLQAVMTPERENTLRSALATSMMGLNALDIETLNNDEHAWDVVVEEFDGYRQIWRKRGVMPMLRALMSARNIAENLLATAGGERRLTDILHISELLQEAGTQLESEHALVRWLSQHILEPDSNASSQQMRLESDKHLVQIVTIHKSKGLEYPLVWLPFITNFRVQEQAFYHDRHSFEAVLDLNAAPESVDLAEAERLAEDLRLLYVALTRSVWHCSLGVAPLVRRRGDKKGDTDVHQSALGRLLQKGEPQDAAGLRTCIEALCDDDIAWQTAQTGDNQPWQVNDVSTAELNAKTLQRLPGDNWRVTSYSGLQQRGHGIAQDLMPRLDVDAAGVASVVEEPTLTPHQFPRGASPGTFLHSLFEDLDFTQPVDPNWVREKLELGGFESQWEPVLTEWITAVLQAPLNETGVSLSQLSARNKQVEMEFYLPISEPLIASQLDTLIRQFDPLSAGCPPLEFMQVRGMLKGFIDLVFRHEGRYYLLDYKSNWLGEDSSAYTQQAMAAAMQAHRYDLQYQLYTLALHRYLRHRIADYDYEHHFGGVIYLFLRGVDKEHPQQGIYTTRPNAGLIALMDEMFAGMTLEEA

Nonstructural protein 1 = Nonstructural protein 1 (Influenza A virus, UniProt Q194T2); assay type: functional, Influenza A virus (A/California/07/2009(H1N1))
[7] = Counterscreen for AddAB inhibitors: absorbance-based bacterial cell-based high throughput dose response assay for inhibitors of bacterial viability. [Related pubchem assays (depositor defined):AID435030, AID449728, AID449731, AID488942, AID488955, AID488956]; assay type: functional

Cytochrome P450 3A4, sequence (P08684 whole entry): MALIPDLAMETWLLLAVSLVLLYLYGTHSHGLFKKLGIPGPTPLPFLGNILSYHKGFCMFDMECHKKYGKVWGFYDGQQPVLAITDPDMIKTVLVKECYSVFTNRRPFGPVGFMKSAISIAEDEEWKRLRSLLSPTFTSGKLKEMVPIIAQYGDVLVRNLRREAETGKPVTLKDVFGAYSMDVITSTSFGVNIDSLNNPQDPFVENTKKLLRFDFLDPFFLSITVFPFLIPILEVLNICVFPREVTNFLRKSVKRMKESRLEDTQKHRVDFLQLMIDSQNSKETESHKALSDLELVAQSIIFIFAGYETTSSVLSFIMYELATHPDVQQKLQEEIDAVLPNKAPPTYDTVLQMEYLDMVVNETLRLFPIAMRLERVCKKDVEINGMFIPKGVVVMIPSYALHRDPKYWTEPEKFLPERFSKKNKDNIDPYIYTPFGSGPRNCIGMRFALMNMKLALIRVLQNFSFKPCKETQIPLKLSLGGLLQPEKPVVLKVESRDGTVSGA
Cytochrome P450 2D6, sequence (P10635 whole entry): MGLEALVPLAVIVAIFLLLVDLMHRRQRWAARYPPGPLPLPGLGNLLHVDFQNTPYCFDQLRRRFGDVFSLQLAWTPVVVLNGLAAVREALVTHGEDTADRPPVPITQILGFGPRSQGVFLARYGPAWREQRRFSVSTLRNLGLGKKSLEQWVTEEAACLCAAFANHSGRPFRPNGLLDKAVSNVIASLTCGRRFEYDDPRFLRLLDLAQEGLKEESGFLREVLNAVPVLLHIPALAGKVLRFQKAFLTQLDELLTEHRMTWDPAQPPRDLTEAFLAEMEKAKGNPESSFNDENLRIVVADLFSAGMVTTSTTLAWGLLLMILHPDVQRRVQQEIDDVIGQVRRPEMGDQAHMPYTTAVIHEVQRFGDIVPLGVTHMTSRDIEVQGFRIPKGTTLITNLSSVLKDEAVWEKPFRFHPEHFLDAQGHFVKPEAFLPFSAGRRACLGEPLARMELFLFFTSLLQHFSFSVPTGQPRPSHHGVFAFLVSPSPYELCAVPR
Cytochrome P450 2C19, sequence (P33261 whole entry): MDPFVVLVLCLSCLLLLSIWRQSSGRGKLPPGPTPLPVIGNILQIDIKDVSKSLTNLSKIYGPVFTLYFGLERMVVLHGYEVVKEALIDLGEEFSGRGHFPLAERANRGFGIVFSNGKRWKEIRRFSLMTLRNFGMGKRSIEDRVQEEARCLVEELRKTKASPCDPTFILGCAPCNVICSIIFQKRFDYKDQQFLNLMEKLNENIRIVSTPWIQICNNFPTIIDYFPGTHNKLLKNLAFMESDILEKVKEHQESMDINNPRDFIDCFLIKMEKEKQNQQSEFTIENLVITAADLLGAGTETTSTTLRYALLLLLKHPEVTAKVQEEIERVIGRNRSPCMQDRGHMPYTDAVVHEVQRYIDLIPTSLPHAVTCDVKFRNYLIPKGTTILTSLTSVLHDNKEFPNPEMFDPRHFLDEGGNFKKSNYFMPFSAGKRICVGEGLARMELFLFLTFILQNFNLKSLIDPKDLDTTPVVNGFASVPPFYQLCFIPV
Nonstructural protein 1, sequence (Q194T2 whole entry): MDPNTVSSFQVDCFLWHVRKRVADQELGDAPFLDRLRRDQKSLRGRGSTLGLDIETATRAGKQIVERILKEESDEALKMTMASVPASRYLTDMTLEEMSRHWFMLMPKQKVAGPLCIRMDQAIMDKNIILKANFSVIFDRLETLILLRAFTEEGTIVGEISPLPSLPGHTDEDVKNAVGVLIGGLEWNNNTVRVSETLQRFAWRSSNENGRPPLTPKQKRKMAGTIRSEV
SUMO E1/E2, sequence (Q9UBE0 whole entry): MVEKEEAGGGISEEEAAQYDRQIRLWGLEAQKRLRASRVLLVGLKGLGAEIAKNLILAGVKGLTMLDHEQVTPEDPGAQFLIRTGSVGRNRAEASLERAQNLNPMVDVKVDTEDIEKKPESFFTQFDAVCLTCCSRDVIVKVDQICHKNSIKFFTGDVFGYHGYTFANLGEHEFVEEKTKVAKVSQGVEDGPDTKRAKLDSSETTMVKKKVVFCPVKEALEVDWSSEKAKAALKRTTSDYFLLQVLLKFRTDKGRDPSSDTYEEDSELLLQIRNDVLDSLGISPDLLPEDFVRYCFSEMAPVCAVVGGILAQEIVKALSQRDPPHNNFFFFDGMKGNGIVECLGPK
SUMO E1/E2, sequence (Q9UBT2 whole entry): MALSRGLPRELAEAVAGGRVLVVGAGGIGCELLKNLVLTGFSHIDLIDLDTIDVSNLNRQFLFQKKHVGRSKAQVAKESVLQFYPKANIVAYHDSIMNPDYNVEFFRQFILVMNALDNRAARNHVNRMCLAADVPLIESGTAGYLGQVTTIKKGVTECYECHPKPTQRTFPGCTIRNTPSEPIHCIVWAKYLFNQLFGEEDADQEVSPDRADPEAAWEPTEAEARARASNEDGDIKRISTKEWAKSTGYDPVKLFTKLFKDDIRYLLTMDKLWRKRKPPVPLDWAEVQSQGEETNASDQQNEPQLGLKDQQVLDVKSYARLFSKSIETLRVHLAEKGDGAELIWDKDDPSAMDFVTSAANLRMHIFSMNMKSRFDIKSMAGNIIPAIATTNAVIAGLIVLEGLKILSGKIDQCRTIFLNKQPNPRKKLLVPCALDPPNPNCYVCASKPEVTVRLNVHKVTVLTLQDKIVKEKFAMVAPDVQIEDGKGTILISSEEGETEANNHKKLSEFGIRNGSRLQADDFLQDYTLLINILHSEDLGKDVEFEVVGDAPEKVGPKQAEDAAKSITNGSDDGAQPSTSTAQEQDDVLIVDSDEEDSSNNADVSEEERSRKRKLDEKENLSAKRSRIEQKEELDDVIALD
SUMO E1/E2, sequence (P63279 whole entry): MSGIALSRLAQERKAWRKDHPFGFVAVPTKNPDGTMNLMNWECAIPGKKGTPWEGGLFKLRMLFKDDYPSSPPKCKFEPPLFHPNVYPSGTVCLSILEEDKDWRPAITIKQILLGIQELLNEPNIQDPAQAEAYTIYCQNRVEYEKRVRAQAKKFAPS
Cytochrome P450 2C9, sequence (P11712 whole entry): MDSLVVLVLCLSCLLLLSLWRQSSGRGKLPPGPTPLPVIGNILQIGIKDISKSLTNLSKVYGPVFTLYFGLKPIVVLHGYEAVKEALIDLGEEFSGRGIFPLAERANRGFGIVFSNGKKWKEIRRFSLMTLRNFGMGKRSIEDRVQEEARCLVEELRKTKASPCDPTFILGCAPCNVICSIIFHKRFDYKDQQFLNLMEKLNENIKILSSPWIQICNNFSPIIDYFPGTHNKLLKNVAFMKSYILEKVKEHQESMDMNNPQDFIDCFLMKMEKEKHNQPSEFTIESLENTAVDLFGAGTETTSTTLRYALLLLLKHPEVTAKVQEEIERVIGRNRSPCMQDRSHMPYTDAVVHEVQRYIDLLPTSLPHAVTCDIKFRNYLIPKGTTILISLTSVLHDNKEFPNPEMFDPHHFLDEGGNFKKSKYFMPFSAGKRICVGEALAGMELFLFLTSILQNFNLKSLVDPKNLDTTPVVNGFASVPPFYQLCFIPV
Tumor necrosis factor, sequence (P01375 whole entry, the tested form may be a part): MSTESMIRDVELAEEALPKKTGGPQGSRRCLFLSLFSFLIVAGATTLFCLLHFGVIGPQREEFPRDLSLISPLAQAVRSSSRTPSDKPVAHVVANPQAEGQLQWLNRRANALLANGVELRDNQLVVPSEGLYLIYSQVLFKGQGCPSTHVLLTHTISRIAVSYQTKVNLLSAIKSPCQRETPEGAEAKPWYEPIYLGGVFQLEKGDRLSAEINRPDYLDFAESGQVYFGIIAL

COC(=O)[C@H]1[C@@H](c2ccccc2)[C@@]2(c3ccccc3)Oc3ccccc3[C@@]1(O)[C@@H]2O
AC50 (Cytochrome P450 2C19): 3.98 µM (inconclusive) | AC50 (Cytochrome P450 3A4): 3.16 µM (inconclusive) | AC50 (Cytochrome P450 2D6): inconclusive

O=C(Nc1ccc(Nc2ccncc2)cc1)c1ccc([N+](=O)[O-])cc1
AC50 [1]: 7.22 µM (active) | AC50 (A-375): 33.1 µM (active)

C/C(=N\NC(=O)COc1ccc([N+](=O)[O-])cc1)C(C)(C)C
AC50 (Cytochrome P450 3A4): 28.2 µM (inconclusive) | AC50 (Cytochrome P450 2D6): inconclusive

CC(=O)c1c(C)oc2c1C(=O)c1ccccc1C2=O
AC50 [2]: 3.93 µM (active) | AC50 [1]: 6.68 µM (active) | AC50 (INS1): 4.35 µM (active) | AC50 (A-375): 41.3 µM (active)

O=C(Nc1ccc(F)cc1)c1ccc(CN2CCc3ccccc3C2)cc1
IC50 (Tumor necrosis factor): 2.88 µM (active) | IC50 [3]: 3.11 µM (active) | IC50 [4]: > 80 µM (inactive) | IC50 (HEK293): > 20 µM (inactive)

CNS(=O)(=O)c1cccc(C(=O)OCC(=O)/C=C2/N(C)c3ccccc3C2(C)C)c1
IC50 [5]: 2.64 µM (active) | IC50 [6]: 1.64 µM (active)

Cc1ccc(N=C(S)N2CCN(C(=O)C3CCCO3)CC2)c(C)c1 (stereo not given)
AC50 (Cytochrome P450 3A4): 22.4 µM (inconclusive) | AC50 (Cytochrome P450 2D6): inconclusive | AC50 (Cytochrome P450 2C9): inconclusive

COc1cc(-c2n[nH]c(=S)n2/N=C/c2cccn2C)cc(OC)c1OC
IC50 (SUMO E1/E2): > 100 µM (inactive)

Oc1nncc(N/N=C/c2ccccn2)n1
IC50 (Exodeoxyribonuclease V): 27.5 µM (inactive) | IC50 (Nonstructural protein 1): 1.44 µM (active) | IC50 [7]: 32.2 µM (inactive) | AC50 [1]: 4.65 µM (active)
